Data reported in patent US20250002435A1, “ARYLATED FENCHONE DERIVATIVES, COMPOSITIONS COMPRISING THEM, PROCESSES FOR THEIR PREPARATION AND USES THEREOF” (priority 2021, published 2025).
Entries after “also recorded” stand apart in the source; their conditions may differ. Where two headings read alike, the source gives them in different places.

Columns and labels:
mCB1R = mCB1R (Mus musculus (Mouse), UniProt P47746); experiment: [3H]CP-55,940 competition displacement binding, crude membranes from mouse brain
mCB1R, sequence (P47746 whole entry): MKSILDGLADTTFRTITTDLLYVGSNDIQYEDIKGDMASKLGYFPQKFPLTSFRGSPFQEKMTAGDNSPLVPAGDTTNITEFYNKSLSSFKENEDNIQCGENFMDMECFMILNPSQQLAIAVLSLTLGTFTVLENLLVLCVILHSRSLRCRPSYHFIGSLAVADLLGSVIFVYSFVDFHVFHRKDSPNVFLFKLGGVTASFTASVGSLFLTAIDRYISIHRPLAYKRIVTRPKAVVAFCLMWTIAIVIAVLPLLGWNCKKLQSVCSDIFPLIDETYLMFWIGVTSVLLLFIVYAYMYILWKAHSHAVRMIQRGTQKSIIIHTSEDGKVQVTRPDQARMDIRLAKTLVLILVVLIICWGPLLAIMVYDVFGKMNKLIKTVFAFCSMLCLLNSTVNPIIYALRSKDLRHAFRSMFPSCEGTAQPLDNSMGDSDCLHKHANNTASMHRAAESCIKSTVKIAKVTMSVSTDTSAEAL
Procedure: (§1) Affinity for Cannabinoid Receptors. The compounds were further characterized using a radioligand binding assay to determine their affinities for CB1R and CB2R based on each test compound's ability to displace the radiolabeled CB1R/CB2R agonist CP-55,940 from membranes prepared from a mouse brain (a source of CB1R) and membranes of cells expressing the human CB2R. […] Therefore, the compounds were assayed using membranes from CHO-K1 cells expressing the human CB2R (hCB2R).
(§2) Membranes from cells expressing human CB2R were purchased from Charles River, (Cat #A308; Ohio, US). Solutions of test compounds ranging from 0.1 nM to 10 mM were prepared in DMSO. The desired amount of membrane preparation was diluted with ice-cold assay buffer (50 mM Tris-HCl, 2.5 mM EDTA, 5 mM MgCl2, 0.1% BSA, pH 7.4) and was vortexed. […] The assays were incubated for 90 minutes at 30° C. and then immediately filtered on WHATMAN GF/B FilterPaper (Fired) using a Brandel M-24R Harvester followed by six washes with ice cold wash buffer (50 mM Tris-HCl, 2.5 mM EDTA, 5 mM MgCl2, 0.1% BSA, pH 7.4). Radioactivity was detected by adding the FilterPaper directly to the ULTIMA GOLD scintillation cocktail (PerkinElmer), incubation at 20° C. for 60 min and then counted using a Tri-Carb 4910TR liquid scintillation counter.

hCB2R [1] = target: T1, hCB2R (Homo sapiens (Human), UniProt P34972); experiment: [3H]CP-55,940 competition displacement binding, membranes of CHO-K1 cells expressing human CB2R
T1 sequence (P34972 whole entry): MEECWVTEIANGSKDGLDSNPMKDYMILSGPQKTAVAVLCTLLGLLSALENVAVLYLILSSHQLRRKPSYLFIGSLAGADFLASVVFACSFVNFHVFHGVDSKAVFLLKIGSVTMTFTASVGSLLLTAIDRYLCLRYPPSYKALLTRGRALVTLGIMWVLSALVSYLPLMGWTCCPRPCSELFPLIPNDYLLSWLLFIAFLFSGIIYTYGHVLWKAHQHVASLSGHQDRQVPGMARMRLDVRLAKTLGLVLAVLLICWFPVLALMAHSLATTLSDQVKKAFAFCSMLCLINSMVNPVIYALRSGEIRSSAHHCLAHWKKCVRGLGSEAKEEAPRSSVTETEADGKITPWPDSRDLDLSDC
Procedure: as §1, §2

hCB2R [2] = target: T1, hCB2R; experiment: [35S]GTPγS binding assay, hCB2R CHO cell membranes; assay type: biochemical; settings: for functional activity at hCB2R (agonist / inverse agonist): [35S]GTPγS binding; for EC50: [35S]GTPγS binding to hCB2R, two independent experiments in triplicate; for E(max) %: percentage of HU-308 response at 1 μM
Procedure: Functional Characterization.
The method used for measuring agonist-stimulated binding of [^35S]GTPγS was based on a described protocol. The assays were carried out with GTPγS assay buffer (50 mM Tris HCl (pH 7.4), 0.2 mM EGTA, 9 mM MgCl2, 150 mM NaCl, 1 mg/ml BSA). Briefly, membranes (5 μg protein) were incubated in assay buffer containing 100 μM GDP, 0.05 nM [^35S]GTPγS, test compounds at various concentrations in siliconized glass tubes. Bound ligand was separated from free ligand by vacuum filtration. Nonspecific binding was determined using 10 μM GTPS. Basal binding was assayed in the absence of the ligand and in the presence of GDP.

[3] = displacement of [3H]CP-55,940, NB = No binding detected at concentrations up to 10 μM, read-out: Ki (nM) mCB1R
[4] = >10 μM = Displacement of radioactive ligand detected at high concentrations competing ligand, read-out: Ki mCB1R

| SMILES | Ki (mCB1R; [3]) | Ki (hCB2R [1]; displacement of [3H]CP-55,940) | functional activity at hCB2R (agonist / inverse agonist) (hCB2R [2]) | also measured |
| --- | --- | --- | --- | --- |
| CCCCCCC(C)(C)c1cc(OC)c([C@@]2(O)C3(C)CCC(C3)C2(C)C)c(OC)c1 (stereo partly drawn) [Compound 1c, 2-(2,6′-dimethoxy-4′-(2″-methyloctan-2″-yl)phenyl)-1,3,3-trimethyl-bicyclo[2.2.1]heptan-2-ol] | > 10000 nM | 56.8 nM | agonist | EC50 (hCB2R [2]): 121 nM; E(max) % (hCB2R [2]): 87.15% |
| CCCCCCC(C)(C)c1cc(OC)c([C@@H]2C=C(CO)[C@@H]3C[C@H]2C3(C)C)c(OC)c1 [HU-308, reference compound] | – | – | agonist | Ki (mCB1R): > 10000 nM; E(max) % (hCB2R [2]): 100% |
| CCCCCc1ccc(OC)c(C2(O)C3(C)CCC(C3)C2(C)C)c1 (single isomer, unassigned) [Compound 3c, 2-(2′-methoxy-5′-pentylphenyl)-1,3,3-trimethylbicyclo[2.2.1]heptan-2-ol] | – | – | – | Ki (mCB1R; read-out: Ki (nM) mCB1R): > 10000 nM |
| CCCc1ccc(OC)c(C2(O)C3(C)CCC(C3)C2(C)C)c1 (single isomer, unassigned) [Compound 3b, 2-(2′-methoxy-5′-propylphenyl)-1,3,3-trimethylbicyclo[2.2.1]heptan-2-ol] | > 10000 nM | – | – | – |
| CCCCCCC(C)(C)c1cc(OC)c(C2(O)C3(C)CCC(C3)C2(C)C)c(OC)c1F (single isomer, unassigned) [Compound 4c, 2-(3′-fluoro-2,6′-dimethoxy-4′-(2″-methyloctan-2″-yl)phenyl)-1,3,3-trimethyl-bicyclo[2.2.1]heptan-2-ol] | > 10000 nM | 438 nM | – | – |
| CCCCCc1cc(OC)c(C2(O)C3(C)CCC(C3)C2(C)C)c(OC)c1F (single isomer, unassigned) [Compound 4a, 2-(3′-fluoro-2′,6′-dimethoxy-4′-pentylphenyl)-1,3,3-trimethylbicyclo[2.2.1]hept-an-2-ol] | – | – | – | Ki (mCB1R; [4]): > 10000 nM |
| CCCCCc1cc(OC)c(C2(O)C3(C)CCC(C3)C2(C)C)c(OC)c1F (single isomer, unassigned) [Compound 4b, 2-(3′-fluoro-2′,6′-dimethoxy-4′-pentylphenyl)-1,3,3-trimethylbicyclo[2.2.1]hept-an-2-ol] | – | – | agonist | Ki (mCB1R; [4]): > 10000 nM; EC50 (hCB2R [2]): 305 nM |
| CCCCCCc1ccc(OC)c(C2(O)C3(C)CCC(C3)C2(C)C)c1OC (single isomer, unassigned) [Compound 2a, 2-(3′-hexyl-2,6′-dimethoxyphenyl)-1,3,3-trimethylbicyclo[2.2.1]heptan-2-ol] | > 10000 nM | 224 nM | – | – |
| CCCCCCC(C)(C)c1cc(O)c(C2(O)C3(C)CCC(C3)C2(C)C)c(OC)c1 (stereo not drawn) [Compound 5c, 2-(2′-hydroxy-6′-methoxy-4′-(2″-methyloctan-2″-yl)phenyl)-1,3,3-trimethyl-bicyclo[2.2.1]heptan-2-ol] | > 10000 nM | 107 nM | – | – |
| COc1cc(C)cc(OC)c1C1(O)C2(C)CCC(C2)C1(C)C (single isomer, unassigned) [Compound 1e, 2-(2,6′-dimethoxy-4′-methylphenyl)-1,3,3-trimethylbicyclo[2.2.1]-heptan-2-ol] | – | – | – | Ki (mCB1R; read-out: Ki (nM) mCB1R): > 10000 nM |
| CCCCCCc1ccc(OC)c(C2(O)C3(C)CCC(C3)C2(C)C)c1OC (single isomer, unassigned) [Compound 2b, 2-(3′-hexyl-2,6′-dimethoxyphenyl)-1,3,3-trimethylbicyclo[2.2.1]heptan-2-ol] | – | 73.4 nM | weakly stimulated; also recorded: agonist | Ki (mCB1R; [4]): > 10000 nM; E(max) % (hCB2R [2]): 46.2% |
| CCCCCCCCc1ccc(OC)c(C2(O)C3(C)CCC(C3)C2(C)C)c1 (single isomer, unassigned) [Compound 3h, 2-(2′-methoxy-5′-octylphenyl)-1,3,3-trimethylbicyclo[2.2.1]heptan-2-ol] | > 10000 nM | – | – | – |
| CCC(C)(C)c1ccc(OC)c(C2(O)C3(C)CCC(C3)C2(C)C)c1 (single isomer, unassigned) [Compound 3e, 2-(2′-methoxy-5′-(tert-pentyl)phenyl)-1,3,3-trimethylbicyclo[2.2.1]heptan-2-ol] | – | – | – | Ki (mCB1R; read-out: Ki (nM) mCB1R): > 10000 nM |
| CCC(C)(C)c1ccc(OC)c(C2(O)C3(C)CCC(C3)C2(C)C)c1 (single isomer, unassigned) [Compound 3f, 2-(2′-methoxy-5′-(tert-pentyl)phenyl)-1,3,3-trimethylbicyclo[2.2.1]heptan-2-ol] | > 10000 nM | – | – | – |
| CCCCCCCCc1ccc(OC)c(C2(O)C3(C)CCC(C3)C2(C)C)c1 (single isomer, unassigned) [Compound 3g, 2-(2′-methoxy-5′-octylphenyl)-1,3,3-trimethylbicyclo[2.2.1]heptan-2-ol] | – | – | – | Ki (mCB1R; read-out: Ki (nM) mCB1R): > 10000 nM |
| COc1cc(C)cc(OC)c1C1(O)C2(C)CCC(C2)C1(C)C (single isomer, unassigned) [Compound 1f, 2-(2,6′-dimethoxy-4′-methylphenyl)-1,3,3-trimethylbicyclo[2.2.1]-heptan-2-ol] | > 10000 nM | – | – | Ki (hCB2R [1]): 233 nM |
| CCCc1ccc(OC)c(C2(O)C3(C)CCC(C3)C2(C)C)c1 (single isomer, unassigned) [Compound 3a, 2-(2′-methoxy-5′-propylphenyl)-1,3,3-trimethylbicyclo[2.2.1]heptan-2-ol] | – | – | – | Ki (mCB1R; read-out: Ki (nM) mCB1R): > 10000 nM |
| CCCCCc1cc(OC)c(C2(O)C3(C)CCC(C3)C2(C)C)c(OC)c1 (single isomer, unassigned) [Compound 1a, 2-(2,6′-dimethoxy-4′-pentylphenyl)-1,3,3-trimethylbicyclo[2.2.1]heptan-2-ol] | – | 47.7 nM | inverse agonist | Ki (mCB1R; [4]): > 10000 nM; inhibition of [3H]CP-55,940 binding to mCB1R (mCB1R; in words): no measurable inhibition; EC50 (hCB2R [2]): 1580 nM; E(max) % (hCB2R [2]): 24.08%; IC50 (hCB2R [2]; read-out: IC50, reduction of [35S]GTPγS binding in hCB2R membrane): 1580 nM |
| CCCCCc1ccc(OC)c(C2(O)C3(C)CCC(C3)C2(C)C)c1 (single isomer, unassigned) [Compound 3d, 2-(2′-methoxy-5′-pentylphenyl)-1,3,3-trimethylbicyclo[2.2.1]heptan-2-ol] | > 10000 nM | – | – | – |
| CCCCCCC(C)(C)c1cc(OC)c(C2(O)C3(C)CCC(C3)C2(C)C)c(OC)c1F (single isomer, unassigned) [Compound 4d, 2-(3′-fluoro-2,6′-dimethoxy-4′-(2″-methyloctan-2″-yl)phenyl)-1,3,3-trimethyl-bicyclo[2.2.1]heptan-2-ol] | > 10000 nM | 56.6 nM | agonist | EC50 (hCB2R [2]): 104 nM; E(max) % (hCB2R [2]): 118.7% |
